Measurements reported in US4082751A, “Therapeutic agents” (priority 1976, dated 1978).
Read-outs that look alike come from different tables or passages of the source.

What was measured:
[1] = test system: reagin-mediated Passive Cutaneous Anaphylaxis (PCA) response; assay: Reagin-mediated rat Passive Cutaneous Anaphylaxis (PCA) screening test; format: in vivo, rat (Sprague-Dawley)
Procedure: The reagin-mediated rat Passive Cutaneous Anaphylaxis (PCA) screening test used to evaluate the present compounds is generally regarded as one of the best animal models for use in predicting the antiallergy activity of test compounds in man. Briefly, the method consists of passive sensitization of skin sites on the test animals with reaginic antibodies followed after 24 hours by administration of the test drug and antigen challenge. The allergic response is measured by use of Evans'blue dye and is evaluated by the spot diameter at the injection site. Details of the test are provided below.
Ovalbumin (5 times crystalline) Dinitrobenzene sulfonic acid, Na^+ salt Bordetella pertussis vaccine - phase I 10-20 × 10 ^9 killed organisms/ml. Aluminum hydroxide gel - 10 mg./ml. Potassium carbonate Male Sprague-Dawley (S/D) Rats - 200 gms. Female Sprague-Dawley Rats - 100 gms. Tris Buffered Saline (TBS) - 0.02 M 2-amino-2-hydroxymethyl-1,3-propanediol (Tris), 0.15 M NaCL, pH 8.2
A substituted ovalbumin antigen is used both as immunogen and challenging antigen. The antigen is prepared as follows: 500 mg. ovalbumin (EA) and 500 mg. K2 CO3 are dissolved in 25 ml. distilled H2 O and stirred at room temperature for 5 minutes. Five hundred (500)mg. dinitrobenzene sulfonic acid, Na^+ salt, (previously recrystallized from hot absolute ethanol) is then added slowly with continued stirring. The reaction mixture is then immediately placed in the dark and allowed to proceed for 2 hours with constant stirring. After 2 hours the mixture is placed in suitable dialysis tubing and dialyzed against 5 changes (4 liters each) of distilled H2 O at 5° C. After dialysis the product is lyophilized and stored at room temperature in a brown or amber container. The antigen obtained will appear as a light yellow, amorphous solid which is very soluble in water or saline. It is designated as DNP denatured ovalbumin (DNP-d EA).
Adult, male Sprague-Dawley rats are used as a source of reagin-rich antisera for the PCA model. Immunization is by a combinatin of DNP-d EA on Al(OH) 3 gel and B. pertussis vaccine. Preparation of the DNP-d EA - gel immunogen is as follows: Dissolve the DNP-d EA in TBS so as to give a concentration of 10 mg./ml. Slowly add 1 ml. of this solution to 10 ml. Al(OH) 3 gel (10 mg. solids/ml.) with constant stirring at room temperature. Stir the mixture an additional 30 minutes to insure a uniform adsorption of antigen on gel.
The resulting preparation is then used in combination with phase I B. pertussis vaccine to immunize male S/D rats as follows: For each rat administer 0.1 ml. DNP-d EA - gel suspension intramuscularly in each hind leg (200 μg DNP-d EA and 2 mg. gel total dose). Follow these injections by the intraperitoneal administration of 1.0 ml. B. pertussis vaccine (10-20 × 10 ^9 organisms). The use of light ether anesthesia during this procedure is recommended to insure proper intramuscular and intraperitoneal injections. 9 days following immunization (but no longer than 10) the animals are exsanguinated by cardiac puncture or abdominal aorta cannulation under ether or pentobarbital anesthesia. The collected whole blood is allowed to clot, the serum separated by centrifugation and the individual serum samples stored frozen until assayed for IgE content.
Individual serum samples should be screened for reaginic antibody concentration before being pooled with other sera, as not all rats respond to immunization procedures with reagin production. At 1:50 saline dilution of serum from each immunized rat is used for this purpose. Intradermal injections of 0.05 ml. of the diluted sera are made in the shaven backs of two small female recipient rats, 100-120 gms. Several serum samples can be tested simultaneously in recipient animals. After a 24 to 48 hour latent period antigen challenge is accomplished by intravenous administration to each rat of 1 mg. DNP-d EA in 0.5 ml. 0.5% Evans' blue dye in saline. […]

[2] = must be administered by inhalation; cited from earlier work
[3] = cited from earlier work
[4] = test system: release of mediators, e.g. histamine and SRS-A; conditions: administered to asthmatic patients prior to inhalation of specific antigens; cited from earlier work
[5] = water solubility of salts; format: physicochemical; conditions: salts of 2-(2-n-propoxyphenyl)-5-(5-1H-tetrazolyl)-pyrimidin-4(3H)-one
[6] = po, 10 min before antigen challenge, read-out: ID50, the dose of compound that inhibits 50% of the response, p.o.
[7] = iv, test compounds 1-5 min before antigen challenge, DSCG at time of challenge, read-out: ID50, the dose of compound that inhibits 50% of the response, iv.
[8] = bronchodilators, bronchial asthma

| SMILES | ED50 [1, 6] [mg/kg] | other results |
| --- | --- | --- |
| CCC(C)Oc1ccccc1-c1ncc(-c2nnn[nH]2)c(=O)[nH]1 (racemic) [Example 5, (±)-2-(2-sec-Butoxyphenyl)-5-(5-1H-tetrazolyl)pyrimidin-4(3H)-one] | 0.05 | – |
| O=C(O)c1cc(=O)c2c(OCC(O)COc3cccc4oc(C(=O)O)cc(=O)c34)cccc2o1 [DSCG, disodium cromoglycate] | > 30 | oral absorption [2]: not orally absorbed; cardiovascular side effects ([3]; in vivo): without cardiovascular side effects; inhibition of release of mediators [4]: inhibits the release of mediators; ED50 [1, 7]: 0.3 mg/kg |
| CCOc1ccccc1-c1ncc(-c2nnn[nH]2)c(=O)[nH]1 [Example 1, 2-(2-Ethoxyphenyl)-5-(5-1H-tetrazolyl)pyrimidin-4-(3H)-one] | 0.09 | ED50 [1, 7]: 0.02 mg/kg |
| CCCOc1ccccc1-c1ncc(-c2nnn[nH]2)c(=O)[nH]1 [Example 2, 2-(2-n-Propoxyphenyl)-5-(5-1H-tetrazolyl)pyrimidin-4(3H)-one] | 0.04 | – |
| CC(C)Oc1ccccc1-c1ncc(-c2nnn[nH]2)c(=O)[nH]1 [Example 3, 2-(2-Isopropoxyphenyl)-5-(5-1H-tetrazolyl)pyrimidin-4(3H)-one] | ~0.04 | – |
| CCCCOc1ccccc1-c1ncc(-c2nnn[nH]2)c(=O)[nH]1 [Example 4, 2-(2-n-Butoxyphenyl)-5-(5-1H-tetrazolyl)pyrimidin-4(3H)-one] | ~0.07 | – |
| COc1ccccc1-c1ncc(-c2nnn[nH]2)c(=O)[nH]1 [Example 6, 2-(2-Methoxyphenyl)-5-(5-1H-tetrazolyl)pyrimidin-4(3H)-one] | ~0.1 | – |
| CC(C)COc1ccccc1-c1ncc(-c2nnn[nH]2)c(=O)[nH]1 [Example 7, 2-(2-Isobutoxyphenyl)-5-(5-1H-tetrazolyl)pyrimidin-4(3H)-one] | ~0.1 | – |
| C=CCOc1ccccc1-c1ncc(-c2nnn[nH]2)c(=O)[nH]1 [Example 8, 2-(2-Allyloxyphenyl)-5-(5-1H-tetrazolyl)pyrimidin-4(3H)-one] | 0.24 | – |
| O=c1[nH]c(-c2ccccc2OCC2CC2)ncc1-c1nnn[nH]1 [Example 9, 2-(2-Cyclopropylmethoxyphenyl)-5-(5-1H-tetrazolyl)pyrimidin-4(3H)-one] | 0.07 | – |
| CCCOc1ccc(OC)cc1-c1ncc(-c2nnn[nH]2)c(=O)[nH]1 [Example 10, 2-(5-Methoxy-2-n-propoxyphenyl)-5-(5-1H-tetrazolyl)pyrimidin-4(3H)-one] | 0.03 | – |
| CCCOc1ccc([N+](=O)[O-])cc1-c1ncc(-c2nnn[nH]2)c(=O)[nH]1 [Example 14, 2-(5-Nitro-2-n-propoxyphenyl)-5-(5-1H tetrazolyl)pyrimidin-4(3H)-one] | 5 | – |
| CCCOc1ccc(N)cc1-c1ncc(-c2nnn[nH]2)c(=O)[nH]1 [Example 15, 2-(5-Amino-2-n-propoxyphenyl)-5-(5-1H-tetrazolyl)pyrimidin-4(3H)-one] | ~0.1 | – |
| CCCOc1ccc(N(C)C)cc1-c1ncc(-c2nnn[nH]2)c(=O)[nH]1 [Example 16, 2-(5-Dimethylamino-2-n-propoxyphenyl)-5-(5-1H-tetrazolyl)pyrimidin-4(3H)-on] | ~0.4 | – |
| CN1[C@@H]2CC[C@H]1C[C@@H](OC(=O)C(CO)c1ccccc1)C2 (stereo partly drawn) [atropine] | – | undesirable side effects [3, 8]: cardiac stimulation and gastrointestinal distress |
| CCCOc1ccccc1-c1ncc(-c2nnn[nH]2)c(=O)[nH]1 [diethanolamine, 2-(2-n-propoxyphenyl)-5-(5-1H-tetrazolyl)-pyrimidin-4(3H)-one] | – | water solubility [5]: water soluble |
| CNC[C@H](O)c1ccc(O)c(O)c1 [epinephrine] | – | undesirable side effects [3, 8]: cardiac stimulation and gastrointestinal distress |
| CC(C)NCC(O)c1ccc(O)c(O)c1 (stereo not drawn) [isoproterenol] | – | undesirable side effects [3, 8]: cardiac stimulation and gastrointestinal distress |
| Cn1c(=O)c2[nH]cnc2n(C)c1=O [theophylline] | – | undesirable side effects ([3]; in vivo): cardiac stimulation and gastrointestinal distress |
